Results reported in PMC10614203, “Synthesis, Structure–Activity Relationships, Radiofluorination, and Biological Evaluation of [^18F]RM365, a Novel Radioligand for Imaging the Human Cannabinoid Receptor Type 2 (CB2R) in the Brain with PET” (Journal of Medicinal Chemistry, 2023).

Parameters: species or system mouse
Settings: female, in vivo
Text: The biodistribution of [^18F]RM365 was investigated in vivo in mice (n = 4) and rats (n = 2) by dynamic PET imaging studies.
Among others, increasing activity in the duodenum over time and accumulation in the brown adipose tissue (BAT) were observed (Figure S10). In contrast, a slow washout from the salivary glands, muscle, bones, and kidneys could be observed. An initial comparably high TAC peak value with a SUVmean > 4 in the liver, left ventricle (blood), heart wall, and lung followed by a fast washout and a subsequent slower washout phase could be observed. Furthermore, we conclude a mainly hepatic excretion of the activity, as shown by the liver and jejunum TACs in both species and a bladder activity of 0.24 ± 0.19% of injected dose at 60 min in mice (Figures S8 and S10).
In vivo biodistribution studies of [^18F]RM365 were performed in female CD-1 mice (n = 4, 31 ± 3 g) and female Wistar rats (n = 4, 150 ± 11 g). For the uptake studies into the brain, male Wistar rats carrying the stereotactically injected AAV2/7-CaMKII0.4-intron-hCB2R(D80N) (right striatum) and AAV2/7-CaMKII0.4-intron-3flag-eGFP (control/contralateral, left striatum) were used (n = 6; bodyweights were 260 ± 11 g). Data were assessed by dynamic small animal PET (Nanoscan, Mediso, Budapest, Hungary) in 60 min recordings, followed by T1-weighted (GRE, TR/TE = 15.0/2.4 ms, 252/252, FA = 25°) MR imaging with whole-body coils for anatomical correlation and attenuation correction.
The PET scans were performed 3−4 months after the stereotactic injections. […] Nonparametric (semiquantitative) analysis of achieved time–activity curves (TACs) was performed with Microsoft Excel to determine the time to peak, the TAC peak value, and the area under the curve (AUC) [drawing 1] where c (radioactivity) is expressed as the standardized uptake value normalized to the bodyweight in g (SUV). […] Area under the curves (AUCs) and corresponding 95% confidence intervals (CIs, 95%) were calculated with GraphPad Prism (v.8.2) following the assumptions described by Gagnon et al.[39]

Which results are given for `CC1(C)Cc2ccc(C#N)cc2[C@@H]1NC(=O)c1cc2cc([18F])ccc2[nH]1` [[^18F]RM365]?
initial TAC peak value (SUVmean) (CD-1 (mice), Wistar (rats), mouse): > 4; SUV in spleen (CD-1, mouse): 0.7 ± 0.1; bladder activity (CD-1, mouse, 60 min): 0.24 ± 0.19 % of injected dose
